Columns and labels:
[1] = system: WT Eco riboswitch 36-mer (RNA, riboswitch) AUUGGGUUCCCUCACCCCAAUGGUUAAUCAAAAAGG; assay: ITC; conditions: 10 μM RNA in cell, 100 μM preQ1 in syringe; buffer as in cited work
[2] = system: Eco 35-mer (linker ΔG) (RNA, riboswitch) AUUGGGUUCCCUCACCCCAAUGUUAAUCAAAAAGG; assay: ITC; conditions: 10 μM RNA in cell, 100 μM preQ1 in syringe; buffer as in cited work
[3] = system: Eco 34-mer (linker ΔGG) (RNA, riboswitch) AUUGGGUUCCCUCACCCCAAUUUAAUCAAAAAGG; assay: ITC; conditions: 10 μM RNA in cell, 100 μM preQ1 in syringe; buffer as in cited work
[4] = system: Eco 33-mer (linker ΔGGU) (RNA, riboswitch) AUUGGGUUCCCUCACCCCAAUUAAUCAAAAAGG; assay: ITC; conditions: 10 μM RNA in cell, 100 μM preQ1 in syringe; buffer as in cited work
[5] = system: Eco 30-mer (crystal construct) (RNA, riboswitch) UUGGGUUCCCUCACCCCAAUCAUAAAAAGG; assay: ITC; conditions: 10 μM RNA in cell, 100 μM preQ1 in syringe; buffer as in cited work
[6] = system: WT Eco riboswitch 36-mer, biotinylated (RNA, riboswitch) AUUGGGUUCCCUCACCCCAAUGGUUAAUCAAAAAGG; assay: SPR kinetics (1:1 fit); conditions: Na+ 100 mM, Mg2+ 3 mM; 10 mM Na-HEPES pH 7.5, 25 °C; apparent
[7] = system: G6DAP/C16U (RNA, riboswitch, 2,6-diaminopurine at 6) AUUGGGUUCCCUCACUCCAAUGGUUAAUCAAAAAGG; assay: SPR steady state (one-site fit); conditions: Na+ 100 mM, Mg2+ 3 mM; 10 mM Na-HEPES pH 7.5, 25 °C; preQ1 1.25 to 200 μM
[8] = system: U7C (RNA, riboswitch) AUUGGGCUCCCUCACCCCAAUGGUUAAUCAAAAAGG; assay: SPR steady state (one-site fit); conditions: Na+ 100 mM, Mg2+ 3 mM; 10 mM Na-HEPES pH 7.5, 25 °C; preQ1 9.7 to 10,000 μM; text gives 4.2 ± 0.3 mM
[9] = system: C15U (RNA, riboswitch) AUUGGGUUCCCUCAUCCCAAUGGUUAAUCAAAAAGG; assay: SPR steady state (one-site fit); conditions: Na+ 100 mM, Mg2+ 3 mM; 10 mM Na-HEPES pH 7.5, 25 °C; preQ1 9.7 to 10,000 μM
[10] = system: Eco 30-mer (crystal construct) (RNA, riboswitch) UUGGGUUCCCUCACCCCAAUCAUAAAAAGG; assay: X-ray crystallography (2.30 Å, Mn2+ SAD); conditions: Mn2+ 5 mM, K+ 100 mM, Mg2+ 2 mM (well solution); Na-cacodylate pH 6.0, spermine, MPD, 20 °C

Structure (SMILES)	KD [1] [nM]	KD [2] [nM]	KD [3] [nM]	KD [4] [nM]	KD [5] [nM]	KD [6]	KD [7]	KD [8]	KD [9]	binding [10]
NCc1c[nH]c2nc(N)[nH]c(=O)c12	57.9 ± 1.5	33.4 ± 1.9	14.0 ± 1.6	30.2 ± 1.3	51.9 ± 1.8	120 ± 6 nM	77,390 ± 5880 nM	4,220,000 ± 33,000 nM	7,682,000 ± 206,000 nM	yes
N#Cc1c[nH]c2nc(N)[nH]c(=O)c12	–	–	–	–	–	15,970 ± 2260 nM	–	–	–	–
